Tests used:
[1] = test system: full thickness excision wounds; experiment: In vivo evaluation for wound healing: full thickness excision wounds on the dorsum of mice
Description: Example 10: In Vivo Evaluation of the LCB's for Wound Healing: Twenty, 5-6 week old Balbc/J (stock #000651) male mice were transferred to Jackson Labs in vivo research laboratory in Sacramento, Calif. The mice were ear notched for identification and housed in individually and positively ventilated polycarbonate cages with HEPA filtered air. Bed-o-cob corn cob bedding was used and cages were changed every two weeks. The animal room is lighted entirely with artificial fluorescent lighting, with a controlled 12 h light/dark cycle. The normal temperature and relative humidity ranges in the animal rooms are 22 t 4° C. and 50 t 15%, respectively. The animal rooms were set to have 15 air exchanges per hour. Filtered tap water, acidified to a pH of 2.8 to 3.1, and rodent chow was provided ad libitum. Following a 5-7 days acclimation, mice were randomized by body weight into 2 cohorts of 10 mice each. On study day 0, mice were anesthetized and two full thickness excision wounds (˜6 mm) were made on the dorsum (backs) of mice. One of the wounds was covered using a semi-occlusive polyurethane dressing (Tegaderm™). Dressings covered the wounds for 5 consecutive (5) days from the day of wounding (d 0). The doses of 4-hydroxy-4′-methoxytolan were based on those that promoted lesion healing in mice in previous herpes virus studies. Wound measurements were made on day 5, 7, 9 and 11. Digital images of wounds were taken of each mouse. Test agents were a viscous paste and wounds were surrounded with a saddle glued in place to eliminate cross contamination and wound closure due to contraction. Therefore, changes in wound area are due to re-epithelization. During the five days all wounds are covered with glycerin (control) or glycerin and test agent. At day 5, test agents were removed and changes in wound area were measured (as area/area %) in an effort to gauge the persistence of the compounds in the wound site. By day 5, glycerin produced 26.1% wound closure, whereas 4-hydroxy-4′-methoxytolan (2.5%) closed produced 92.8% wound closure and 5% 4-hydroxy-4′-methoxytolan produced 91.4% wound closure. Prior to statistical analysis a test for Normality was run and a Z-score computed to confirm a normally distributed area for each wound on day 1 for all mice across groups, r^2=0.989. Statistics are computed based One-Way ANOVA's comparing changes in wound area on day 5. All mice tolerated the treatments and all weekly clinical observations report bright, alert, responsive, and hydrated mice.

[2] = test system: skin (keratinocyte layer, dermis); experiment: H&E staining of excised skin samples; format: in vivo; settings: 5% (w/v)
Description: Example 11: Excised skin samples treated with a control or with 5% (w/v) 4-hydroxy-4′-methoxytolan.

[3] = 2.5% (w/v) topical in glycerin, day 0
[4] = 2.5% (w/v) topical in glycerin, day 5
[5] = 2.5% (w/v) topical in glycerin, day 7
[6] = 2.5% (w/v) topical in glycerin, day 9
[7] = 2.5% (w/v) topical in glycerin, day 11
[8] = 5% (w/v) topical in glycerin, day 0
[9] = 5% (w/v) topical in glycerin, day 5
[10] = 5% (w/v) topical in glycerin, day 7
[11] = 5% (w/v) topical in glycerin, day 9
[12] = 5% (w/v) topical in glycerin, day 11

COc1ccc(C#Cc2ccc(O)cc2)cc1 [4-hydroxy-4′-methoxytolan]
Average Area [1, 3]: 2.07 cm^2
Wound Area (%) Closed [1, 3]: 0%
Average Area [1, 4]: 0.15 cm^2
Wound Area (%) Closed [1, 4]: 92.8%
Average Area [1, 5]: 0.04 cm^2
Wound Area (%) Closed [1, 5]: 100%
Average Area [1, 6]: 0.00 cm^2
Wound Area (%) Closed [1, 6]: 100.0%
Average Area [1, 7]: 0.00 cm^2
Wound Area (%) Closed [1, 7]: 100.0%
Average Area [1, 8]: 1.98 cm^2
Wound Area (%) Closed [1, 8]: 0%
Average Area [1, 9]: 0.17 cm^2
Wound Area (%) Closed [1, 9]: 91.4%
Average Area [1, 10]: 0.08 cm^2
Wound Area (%) Closed [1, 10]: 100%
Average Area [1, 11]: 0.00 cm^2
Wound Area (%) Closed [1, 11]: 100.0%
Average Area [1, 12]: 0.00 cm^2
Wound Area (%) Closed [1, 12]: 100.0%
Tolerability of treatment, weekly clinical observations ([1]; topical 2.5% and 5%, Balbc/J male mice): tolerated
Keratinocyte proliferation ([2]; H&E staining): extensive keratinocyte proliferation
Keratinocyte cell layers ([2]; control 1-2 cells thick): 7-8 cells thick

Source: patent publication US11786481B2, “Formulation and process for modulating wound healing” (BioMendics, LLC, priority 2015, dated 2023)
